Square brackets hold non-standard residues; d marks the D form. Peptide text beside a SMILES is read from it. * marks the point of attachment. dPhe(4-NHCONH2) = NC(=O)Nc1ccc(C[C@@H](N)C(=O)O)cc1; Dihydroorotyl(S) = O=C1C[C@@H](C(=O)*)NC(=O)N1; dPhe(4-Cl) = N[C@H](Cc1ccc(Cl)cc1)C(=O)O; Phe(4-NH2) = Nc1ccc(C[C@H](N)C(=O)O)cc1; d2Nal = N[C@H](Cc1ccc2ccccc2c1)C(=O)O; Lys(iPr) = CC(C)NCCCC[C@H](N)C(=O)O; d3Pal = N[C@H](Cc1cccnc1)C(=O)O
Tests used:
[1] = tested on: men with BPH; conditions: in vivo
Procedure: The study population was men with BPH with: a prostate volume larger than 30 mL, a maximal uroflow of 12 mL/s (with some exceptions), an IPSS score of at least 13, serum prostatic specific antigen (PSA) below 10 ng/mL, and no evidence of prostate cancer. Altogether, 52 patients with BPH were randomly assigned to four parallel groups of 13 patients each.
The patients were randomly allocated to receive either: one injection of 64 mg degarelix on Day 0 (hereinafter termed “64 mg”); one injection of 32 mg degarelix on Day 0 and one on Day 14 (hereinafter termed “32+32 mg”); one injection of 32 mg degarelix on Day 0 (hereinafter termed “32 mg”); or one injection of 16 mg degarelix on Day 0 and one on Day 14 (hereinafter termed “16+16 mg”).
In order to evaluate the effects of degarelix on urinary morbidity, sexual function and overall quality of life (QoL) due to urinary condition, patient reported questionnaires (IPSS, IIEF, and IPSS-global QoL) were used. The questionnaires were answered by the patient at the clinic visits, in line with standard procedures.
The IIEF questionnaire evaluated sexual dysfunction associated with treatment. […] Question numbers one to ten are scored on a six-point scale from zero ('No sexual activity') to five (Almost always to always'). Question numbers 11-15 are scored on a five-point scale from one (Almost never or never') to five (Almost always to always'). […]

[2] = tested on: men with BPH; assay: Peak (maximal) urinary flow by flowmetry; assay type: in vivo
Procedure: (§1) For each patient, the following parameters were measured or assessed (using the methods discussed below), at time points of screening day 0 (e.g., −7 days, “baseline”), day 14, day 28, and day 42:
2) Efficacy Endpoints—the measured Peak Urinary Flow, Post-void Residual Volume, and Prostate Volume.
Peak urinary flow was determined by flowmetry using the Uropower device (Wiest, World of Medicine AG, Germany). The device fulfilled the International Continence Society standards for maximum urinary flow. The measurement of urinary flow was done in a sitting position.
The Qmax is the maximal urinary flow rate. It is a traditional parameter used in BPH trials and is a good indicator of degree of bladder outlet obstruction (BOO).

[3] = tested on: men with BPH; assay: IPSS global QoL question, clinical trial in BPH patients; assay type: in vivo
Procedure: as §1
After the initial 6-week treatment period of the exploratory study had been completed, a 12-month follow-up period looking at long-term efficacy commenced. Interim data of the main efficacy variables (IPSS, IPSS Global QoL, prostate volume, urinary flow, and post-void residual volume—measured as set out below) after 6 months' follow-up are also presented herein at Tables 1, 2, 3, and FIG. 1b. FIG. 1b also includes IPSS data at 9 and 12 months.
Included in the IPSS is one item to evaluate QoL (i.e., IPSS-global QoL). The Global QoL Question was developed alongside the IPSS and was officially included as part of the IPSS in 1993 when the WHO formally recommended the IPSS for both symptom and QoL assessment. […] This question assesses the degree to which patients find their symptoms bothersome. Patients are asked about how they would feel if they were to spend the rest of their lives with their prostate symptoms just as they are now. The choices for answering this quality of life question range from “delighted” (rating=0) to “terrible” (rating=6).

[4] = across all patient groups, Day 42
[5] = 16+16 mg, Month 6 follow-up, n=6
[6] = 32+32 mg, Month 6 follow-up, n=7
[7] = combined group (all doses), Day 42

Change of IIEF scores [1]: mild decrease
Structure (SMILES): CC(=O)N[C@H](Cc1ccc2ccccc2c1)C(=O)N[C@H](Cc1ccc(Cl)cc1)C(=O)N[C@H](Cc1cccnc1)C(=O)N[C@@H](CO)C(=O)N[C@@H](Cc1ccc(NC(=O)[C@@H]2CC(=O)NC(=O)N2)cc1)C(=O)N[C@H](Cc1ccc(NC(N)=O)cc1)C(=O)N[C@@H](CC(C)C)C(=O)N[C@@H](CCCCNC(C)C)C(=O)N1CCC[C@H]1C(=O)N[C@H](C)C(N)=O [Degarelix, D-Alaninamide, N-acetyl-3-(2-naphthalenyl)-D-alanyl-4-chloro-D-phenylalanyl-3-(3-pyridinyl)-D-alanyl-L-seryl-4-[[[(4S)-hexahydro-2,6-dioxo-4-pyrimidinyl]carbonyl]amino]-L-phenylalanyl-4-[(aminocarbonyl)amino]-D-phenylalanyl-L leucyl-N6-(1-methylethyl)-L-lysyl-L-prolyl] (Ac-[d2Nal][dPhe(4-Cl)][d3Pal]S[Phe(4-NH2)](Dihydroorotyl(S))[dPhe(4-NHCONH2)]L[Lys(iPr)]P[dA]-NH2)
Mean maximal urinary flow ([2]; 32 mg, Day 42 (baseline 11.7)): 11.2 mL/s
Mean maximal urinary flow ([2]; 64 mg, Day 42 (baseline 9.1)): 11.9 mL/s
Mean maximal urinary flow ([2]; 16+16 mg, Day 42 (baseline 10.0)): 10.1 mL/s
Mean maximal urinary flow ([2]; 32+32 mg, Day 42 (baseline 9.7)): 12.2 mL/s
Number of patients in whom maximal urinary flow decreased compared to baseline [2, 4]: 25 patients
Number of patients in whom maximal urinary flow increased compared to baseline [2, 4]: 24 patients
Number of patients in whom maximal urinary flow remained unchanged [2, 4]: 1 patient
Mean IPSS global QoL score, mean (SD) ([3]; 32 mg, Day 42, N=12): 1.8 (2.0)
Mean change from baseline in IPSS global QoL score, mean (SD) ([3]; 32 mg, Day 42, N=12): −2.1 (3.0)
Change from baseline in IPSS global QoL score, mean (SD) ([3]; 32 mg, Month 6 follow-up, n=7): −1.4 (1.1)
Mean IPSS global QoL score, mean (SD) ([3]; 32 mg, Month 6 follow-up, n=7): 1.4 (1.5)
Mean IPSS global QoL score, mean (SD) ([3]; 64 mg, Day 42, N=13): 2.5 (1.3)
Mean change from baseline in IPSS global QoL score, mean (SD) ([3]; 64 mg, Day 42, N=13): −2.2 (1.6)
Change from baseline in IPSS global QoL score, mean (SD) ([3]; 64 mg, Month 6 follow-up, n=4): −0.8 (1.7)
Mean IPSS global QoL score, mean (SD) ([3]; 64 mg, Month 6 follow-up, n=4): 3.8 (1.3)
Mean IPSS global QoL score, mean (SD) ([3]; 16+16 mg, Day 42, N=13): 2.9 (1.4)
Mean change from baseline in IPSS global QoL score, mean (SD) ([3]; 16+16 mg, Day 42, N=13): −1.2 (1.4)
Change from baseline in IPSS global QoL score, mean (SD) [3, 5]: −0.3 (0.5)
Mean IPSS global QoL score, mean (SD) [3, 5]: 4.2 (1.5)
Mean IPSS global QoL score, mean (SD) ([3]; 32+32 mg, Day 42, N=12): 1.9 (1.6)
Mean change from baseline in IPSS global QoL score, mean (SD) ([3]; 32+32 mg, Day 42, N=12): −2.4 (1.9)
Change from baseline in IPSS global QoL score, mean (SD) [3, 6]: −2.7 (2.1)
Mean IPSS global QoL score, mean (SD) [3, 6]: 1.6 (0.8)
Patients feeling delighted, pleased, or mostly satisfied (IPSS Global QoL scores 0-2) [3, 7]: 58%
Patients feeling unhappy or terrible (IPSS Global QoL scores 5 and 6) [3, 7]: 12%

From US20110039787A1, “COMPOSITIONS, KITS AND METHODS FOR TREATING BENIGN PROSTATE HYPERPLASIA” (priority 2009, published 2011)
